Assay results as given in PMC7576608, “Mechanisms of telomerase inhibition by oxidized and therapeutic dNTPs” (Nature Communications, 2020).

Molecular target: telomerase (Homo sapiens, UniProt O14746)
Test: Telomerase extension of 32P-end labeled primers with a single dNTP (percent primer extension)
Type: biochemical
Set-up: made in house; anti-FLAG immunopurification, eluted with 3xFLAG peptide
Conditions: for Percent Primer Extension: 50 μM single dNTP
Experimental: A chain terminating mechanism of inhibition requires that the enzyme adds the modified dNTP to a growing chain, which then blocks further synthesis. […] To test whether telomerase can incorporate other modified dNTPs, and whether the incorporation is chain terminating and/or mutagenic, we conducted direct extension assays in which we radiolabeled the primer and added increasing concentrations (5, 50, and 500 μM) of a single dNTP (Supplementary Figs. 3, 5, 6, and 7). Since modified dNTPs may prefer mispairing, we tested various primers in which the first template base was either rA3, rC1, or rU5 (primer 1, primer 2, and primer 3, respectively), and compared the percent primer extension for each dNTP at the middle 50 μM concentration (Fig. 3). Primers 1 and 2 initiate synthesis at consecutive rA3rA4 or rC1rC2 template bases, respectively, so we could examine both incorporation and extension to the next base. However, the telomerase template lacks tandem rU residues.
Fig. 3 Telomerase insertion of modified dNTPs. Telomerase reactions were conducted with 5 nM ^32P-end labeled primer a Primer 1 (TTAGGG)3, b Primer 2 (GGTTAG)3, or c Primer 3 (AGGGTT)3. Reactions contained cellular-concentration dNTPs (lane 1) or 50 μM of indicated natural dNTP (blue, lanes 2–5), oxidized dNTP (red, lanes 6–8), or therapeutic dNTP (green, lanes 9–11). Products were separated on denaturing gels. […] Letters on the right indicate the template base; P indicates unextended 18-mer primer. Graphs represent the percent of total primers extended. Images are representative of, and data are shown as mean ± s.d. from, three independent experiments. Source data are provided as a Source Data file.
An equal volume of loading buffer (94% formamide, 0.1× TBE, 0.1% bromophenol blue, 0.1% xylene cyanol) was added to the reaction eluent. The samples were heat denatured for 10 min at 100 °C and loaded onto a 14% denaturing acrylamide gel (7 M urea, 1× TBE) and electrophoresed for 90 min at constant 38 W. Samples were imaged using a Typhoon phosphorimager (GE Healthcare). Percent primer extension was calculated with ImageQuant TL 8.2 by measuring the intensity of each product band and dividing by the total radioactivity in the lane or total products, as indicated in the figure legends.
Telomerase reactions were conducted with 5 nM 32P-end labeled primer (a) Primer 1 (TTAGGG)3, (b) Primer 2 (GGTTAG)3, or (c and d) Primer 3 […]
(d) reactions contained 3 µg/µl RNase A. Products were separated on denaturing gels. Letters on the right indicate the template base; P indicates unextended 18-mer primer. Graphs represent the percent of total primers extended for the reactions in panels a – c from one experiment. Panel d is a representative image from three independent experiments. Source data are provided as a Source Data file. […]
Supplementary Fig 4. Time course reactions with telomerase or pol β. (a, b) Telomerase reactions were conducted with 5 nM 32P-end labeled primer (a) Primer 4 (GTTAGG)3 or (b) Primer 2 (GGTTAG)3.
Products were separated on denaturing gels. Letters on the right indicate the template base; P indicates […]
unextended 18-mer primer. […]

[1] = Primer 1 (TTAGGG)3, first template base rA3, Mean of three experiments
[2] = Primer 2 (GGTTAG)3, first template base rC1, Mean of three experiments
[3] = end-labeled primers, single dNTP
[4] = Primer 2 (GGTTAG)3, first template base rC1, single experiments n1-n3
[5] = Primer 3 (AGGGTT)3, first template base rU5, Mean of three experiments
[6] = Primer 3 (AGGGTT)3, first template base rU5, single experiments n1-n3

telomerase, sequence (O14746 whole entry): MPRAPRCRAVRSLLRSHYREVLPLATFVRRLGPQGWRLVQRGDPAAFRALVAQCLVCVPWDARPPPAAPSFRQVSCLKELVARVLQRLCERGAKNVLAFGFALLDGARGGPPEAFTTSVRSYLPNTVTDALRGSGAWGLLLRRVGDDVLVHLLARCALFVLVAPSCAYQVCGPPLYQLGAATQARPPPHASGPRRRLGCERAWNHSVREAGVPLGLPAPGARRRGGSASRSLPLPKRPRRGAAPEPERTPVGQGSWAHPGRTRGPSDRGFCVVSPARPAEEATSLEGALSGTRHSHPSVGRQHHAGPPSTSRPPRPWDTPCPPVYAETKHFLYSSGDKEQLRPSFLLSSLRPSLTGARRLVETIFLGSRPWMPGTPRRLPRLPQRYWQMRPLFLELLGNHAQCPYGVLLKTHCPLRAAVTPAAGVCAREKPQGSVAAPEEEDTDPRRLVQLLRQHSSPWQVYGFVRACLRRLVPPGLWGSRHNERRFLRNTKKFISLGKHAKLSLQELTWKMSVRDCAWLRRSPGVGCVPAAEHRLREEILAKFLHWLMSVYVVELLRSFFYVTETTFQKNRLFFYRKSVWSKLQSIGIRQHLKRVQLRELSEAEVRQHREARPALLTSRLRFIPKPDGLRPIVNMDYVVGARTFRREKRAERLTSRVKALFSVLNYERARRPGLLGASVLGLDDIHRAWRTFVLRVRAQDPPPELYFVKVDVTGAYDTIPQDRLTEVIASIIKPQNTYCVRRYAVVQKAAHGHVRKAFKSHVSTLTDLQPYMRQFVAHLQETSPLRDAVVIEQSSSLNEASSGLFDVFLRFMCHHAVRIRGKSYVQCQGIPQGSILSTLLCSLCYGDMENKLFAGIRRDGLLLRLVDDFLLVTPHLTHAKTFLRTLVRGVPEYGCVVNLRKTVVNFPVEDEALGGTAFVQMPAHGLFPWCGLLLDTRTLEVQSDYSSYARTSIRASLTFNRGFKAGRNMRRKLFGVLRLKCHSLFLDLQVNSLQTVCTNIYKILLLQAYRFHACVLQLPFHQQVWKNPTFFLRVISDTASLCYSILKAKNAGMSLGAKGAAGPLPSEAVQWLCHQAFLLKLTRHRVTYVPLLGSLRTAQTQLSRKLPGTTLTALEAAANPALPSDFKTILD

Compound: Nc1nc(O)nc2c1ncn2C1CC(O)C(COP(=O)(O)OP(=O)(O)OP(=O)(O)O)O1 (stereo not shown) [2-OH-dATP]
- Percent Primer Extension [1]: 2.82%
- % Primer Extension (Primer 1, 5µM dNTP): 0.00%
- % Primer Extension (Primer 1, 50µM dNTP): 1.98%
- % Primer Extension (Primer 1, 500µM dNTP): 6.01%
- Percent Primer Extension [2]: 1.32%
- % Primer Extension (Primer 2, 5µM dNTP): 0.00%
- % Primer Extension (Primer 2, 50µM dNTP): 1.93%
- % Primer Extension (Primer 2, 500µM dNTP): 3.14%
- Fold less product than with dATP (Primer 3, insertion opposite rU5, 50 μM): 2 fold
- % Primer Extension (Primer 3, 5µM dNTP): 8.27%
- % Primer Extension (Primer 3, 50µM dNTP): 15.94%
- % Primer Extension (Primer 3, 500µM dNTP): 46.35%
- Mutagenic insertion by telomerase (in words) (misinsertion opposite rA3 and rC1): not mutagenic

Compound: Nc1nc2c(ncn2C2CC(O)C(COP(=O)(O)OP(=O)(O)OP(=O)(O)O)O2)c(=S)[nH]1 (stereo not shown) [6-thio-dGTP]
- % Primer Extension (Primer 1, 5µM dNTP): 0%
- % Primer Extension (Primer 1, 50µM dNTP): 3.68%
- % Primer Extension (Primer 1, 500µM dNTP): 4.47%
- % Primer Extension (Primer 2, 5µM dNTP): 6.19%
- % Primer Extension (Primer 2, 50µM dNTP): 6.25%
- % Primer Extension (Primer 2, 500µM dNTP): 8.35%
- % Primer Extension (Primer 3, 5µM dNTP): 6.75%
- % Primer Extension (Primer 3, 50µM dNTP): 6.04%
- % Primer Extension (Primer 3, 500µM dNTP): 7.79%
- Chain termination after telomerase insertion (in words) [3]: not a telomerase chain terminator

Compound: Nc1ncnc2c1[nH]c(=O)n2C1CC(O)C(COP(=O)(O)OP(=O)(O)OP(=O)(O)O)O1 (stereo not shown) [8-oxo-dATP]
- Percent Primer Extension [1]: 0.53%
- % Primer Extension (Primer 1, 5µM dNTP): 0.00%
- % Primer Extension (Primer 1, 50µM dNTP): 0.00%
- % Primer Extension (Primer 1, 500µM dNTP): 1.79%
- Percent Primer Extension [2]: 0.00%
- Percent Primer Extension [4]: 0.00%
- % Primer Extension (Primer 2, 5µM dNTP): 0.00%
- % Primer Extension (Primer 2, 50µM dNTP): 0.00%
- % Primer Extension (Primer 2, 500µM dNTP): 0.00%
- Percent Primer Extension [5]: 0.00%
- Percent Primer Extension [6]: 0.00%
- % Primer Extension (Primer 3, 5µM dNTP): 0.00%
- % Primer Extension (Primer 3, 50µM dNTP): 0.00%
- % Primer Extension (Primer 3, 500µM dNTP): 0.00%
- Quality as telomerase substrate (in words) [3]: very poor substrate for telomerase

Compound: Nc1nc2c([nH]c(=O)n2C2CC(O)C(COP(=O)(O)OP(=O)(O)OP(=O)(O)O)O2)c(=O)[nH]1 (stereo not shown) [8-oxo-dGTP]
- Percent Primer Extension [1]: 10.80%
- % Primer Extension (Primer 1, 5µM dNTP): 5.20%
- % Primer Extension (Primer 1, 50µM dNTP): 7.44%
- % Primer Extension (Primer 1, 500µM dNTP): 8.42%
- Percent Primer Extension [2]: 0.96%
- % Primer Extension (Primer 2, 5µM dNTP): 0.88%
- % Primer Extension (Primer 2, 50µM dNTP): 1.37%
- % Primer Extension (Primer 2, 500µM dNTP): 6.18%
- Percent Primer Extension [5]: 0.00%
- Percent Primer Extension [6]: 0.00%
- % Primer Extension (Primer 3, 5µM dNTP): 0.00%
- % Primer Extension (Primer 3, 50µM dNTP): 0.00%
- % Primer Extension (Primer 3, 500µM dNTP): 0.00%
- Chain termination after telomerase insertion (in words) [3]: chain-terminating ability

Compound: Cc1cn([C@H]2C[C@H](N=[N+]=[N-])[C@@H](CO[P@](=O)(O)O[P@](=O)(O)OP(=O)(O)O)O2)c(=O)[nH]c1=O [AZT-TP]
- Percent Primer Extension [2]: 0.00%
- Percent Primer Extension [4]: 0.00%
- Percent Primer Extension [5]: 0.00%
- Percent Primer Extension [6]: 0.00%
- Chain termination after telomerase insertion (in words) [3]: genuine telomerase chain terminators

Compound: Nc1ncnc2c1ncn2C1CC(O)C(COP(=O)(O)OP(=O)(O)OP(=O)(O)O)O1 (stereo not shown) [dATP]
- Percent Primer Extension [1]: 3.48%
- % Primer Extension (Primer 1, 5µM dNTP): 0.00%
- % Primer Extension (Primer 1, 50µM dNTP): 1.84%
- % Primer Extension (Primer 1, 500µM dNTP): 3.63%
- Percent Primer Extension [2]: 0.00%
- Percent Primer Extension [4]: 0.00%
- % Primer Extension (Primer 2, 5µM dNTP): 0.00%
- % Primer Extension (Primer 2, 50µM dNTP): 0.00%
- % Primer Extension (Primer 2, 500µM dNTP): 2.50%
- % Primer Extension (Primer 3, 5µM dNTP): 11.52%
- % Primer Extension (Primer 3, 50µM dNTP): 14.88%
- % Primer Extension (Primer 3, 500µM dNTP): 23.85%

Compound: Nc1nc2c(ncn2C2CC(O)C(COP(=O)(O)OP(=O)(O)OP(=O)(O)O)O2)c(=O)[nH]1 (stereo not shown) [dGTP]
- % Primer Extension (Primer 1, 5 µM dGTP, one experiment): 5.54%
- % Primer Extension (Primer 1, 50 µM dGTP, one experiment): 14.06%
- % Primer Extension (Primer 1, 500 µM dGTP, one experiment): 18.26%
- % Primer Extension (Primer 2, 5 µM dGTP, one experiment): 20.91%
- % Primer Extension (Primer 2, 50 µM dGTP, one experiment): 31.85%
- % Primer Extension (Primer 2, 500 µM dGTP, one experiment): 40.91%
- % Primer Extension (Primer 3, 5 µM dGTP, one experiment): 2.22%
- % Primer Extension (Primer 3, 50 µM dGTP, one experiment): 6.90%
- % Primer Extension (Primer 3, 500 µM dGTP, one experiment): 12.81%
- % Primer Extension (time course, 50 μM dGTP, primer 2 (GGTTAG)3, 0 minutes): 0.00%
- % Primer Extension (time course, 50 μM dGTP, primer 2 (GGTTAG)3, 1 minute): 1.70%
- % Primer Extension (time course, 50 μM dGTP, primer 2 (GGTTAG)3, 3 minutes): 2.22%
- % Primer Extension (time course, 50 μM dGTP, primer 2 (GGTTAG)3, 5 minutes): 2.61%
- % Primer Extension (time course, 50 μM dGTP, primer 2 (GGTTAG)3, 9 minutes): 2.82%
- % Primer Extension (time course, 50 μM dGTP, primer 2 (GGTTAG)3, 15 minutes): 7.50%
- % Primer Extension (time course, 50 μM dGTP, primer 2 (GGTTAG)3, 30 minutes): 7.57%
- % Primer Extension (time course, 50 μM dGTP, primer 2 (GGTTAG)3, 45 minutes): 7.80%
- % Primer Extension (time course, 50 μM dGTP, primer 4 (GTTAGG)3, 0 minutes): 0.00%
- % Primer Extension (time course, 50 μM dGTP, primer 4 (GTTAGG)3, 1 minute): 1.79%
- % Primer Extension (time course, 50 μM dGTP, primer 4 (GTTAGG)3, 3 minutes): 0.86%
- % Primer Extension (time course, 50 μM dGTP, primer 4 (GTTAGG)3, 5 minutes): 1.17%
- % Primer Extension (time course, 50 μM dGTP, primer 4 (GTTAGG)3, 9 minutes): 1.23%
- % Primer Extension (time course, 50 μM dGTP, primer 4 (GTTAGG)3, 15 minutes): 1.72%
- % Primer Extension (time course, 50 μM dGTP, primer 4 (GTTAGG)3, 30 minutes): 4.10%
- % Primer Extension (time course, 50 μM dGTP, primer 4 (GTTAGG)3, 45 minutes): 8.71%

Compound: Cc1cn(C2CC(O)C(COP(=O)(O)OP(=O)(O)OP(=O)(O)O)O2)c(=O)[nH]c1=O (stereo not shown) [dTTP]
- % Primer Extension (Primer 1, 5µM dNTP): 30.00%
- % Primer Extension (Primer 1, 50µM dNTP): 36.00%
- % Primer Extension (Primer 1, 500µM dNTP): 45.00%
- Percent Primer Extension [2]: 0.00%
- Percent Primer Extension [4]: 0.00%
- % Primer Extension (Primer 2, 5µM dNTP): 0.00%
- % Primer Extension (Primer 2, 50µM dNTP): 0.00%
- % Primer Extension (Primer 2, 500µM dNTP): 0.00%
- % Primer Extension (Primer 3, 5µM dNTP): 3.79%
- % Primer Extension (Primer 3, 50µM dNTP): 9.26%
- % Primer Extension (Primer 3, 500µM dNTP): 17.69%

Compound: O=c1[nH]cnc2c1ncn2C1CCC(COP(=O)(O)OP(=O)(O)OP(=O)(O)O)O1 (stereo not shown) [ddITP]
- Percent Primer Extension [1]: 1.59%
- % Primer Extension (Primer 1, 5µM dNTP): 3.46%
- % Primer Extension (Primer 1, 50µM dNTP): 4.29%
- % Primer Extension (Primer 1, 500µM dNTP): 6.73%
- % Primer Extension (Primer 2, 5µM dNTP): 0%
- % Primer Extension (Primer 2, 50µM dNTP): 4.27%
- % Primer Extension (Primer 2, 500µM dNTP): 5.45%
- Percent Primer Extension [5]: 0.00%
- Percent Primer Extension [6]: 0.00%
- % Primer Extension (Primer 3, 5µM dNTP): 0%
- % Primer Extension (Primer 3, 50µM dNTP): 0%
- % Primer Extension (Primer 3, 500µM dNTP): 0%
- Chain termination after telomerase insertion (in words) [3]: genuine telomerase chain terminators
